Laboratory results reported in ChEMBL document CHEMBL1144947, “L-Serine and glycine based ceramide analogues as transdermal permeation enhancers: polar head size and hydrogen bonding” (2003).

Tests used:
[1] = species: Homo sapiens; assay: Enhancement ratio in theophylline permeation through human skin from isopropyl myristate (IPM) suspension (in vitro); type: functional
[2] = species: Homo sapiens; assay: Enhancement ratio in theophylline permeation through human skin from water (in vitro); type: functional

Row | SMILES | ER [1] | ER [2]
1 | CCCCCCCC/C=C/CCCCCCCC(=O)NC(CO)C(=O)OCCCCCCCCCCCC (centres undefined) | 1.49 | 1.26
2 | CCCCCCCCCCCCOC(=O)C(CO)NC(=O)C(CO)NC(=O)CCCCCCCCCCC (centres undefined) | 1.07 | 1.26
3 | CCCCCCCCCCCCOC(=O)CNC(=O)CCCCCCCCCCC | 1.11 | 12.5
4 | CCCCCCCCCCCCOC(=O)C(CO)NC(=O)C(O)C(O)C(=O)OCCCCCCCCCCC (centres undefined) | 1.45 | 1.39
5 | CCCCCCCCCCCCOC(=O)CNC(=O)CNC(=O)CCCCCCCCCCC | 1.09 | 2.28
6 | CCCCCCCCCCCCOC(=O)C(CO)NC(=O)CCCCCCCCCCC (centres undefined) | 1.21 | 2.74
7 | CCCCCCCCCCCCN1CCCCCC1=O [LAUROCAPRAM] | 0.6 | 2.5
